Here are results for 15 molecules from ChEMBL document CHEMBL5518248, “Design, Synthesis, and Biological Evaluation of Novel Arylomycins against Multidrug-Resistant Gram-Negative Bacteria” (J Med Chem, 2024).

As a reminder, the MIC is the lowest concentration that inhibits growth of the organism.

What all share (assay type): functional
Holding throughout (settings): time 18-20 hrs

Test [1] concerns Escherichia coli. Nature of the test: Antibacterial activity against Escherichia coli ATCC 35218 assessed as inhibition of bacterial growth measured after 18 to 20 hrs by broth microdilution method. For orientation: Dilution methods test growth across graded concentrations, often in twofold steps.
Test [2] concerns Escherichia coli. Description: Antibacterial activity against Escherichia coli 14-2 assessed as inhibition of bacterial growth measured after 18 to 20 hrs by broth microdilution method.
Test [3] relates to Escherichia coli. Nature of the test: Antibacterial activity against Escherichia coli 14-4 assessed as inhibition of bacterial growth measured after 18 to 20 hrs by broth microdilution method.
In test [4] the test system is Klebsiella pneumoniae. Nature of the test: Antibacterial activity against Klebsiella pneumoniae 15-1 assessed as inhibition of bacterial growth measured after 18 to 20 hrs by broth microdilution method.
Test [5] relates to Klebsiella pneumoniae. Nature of the test: Antibacterial activity against Klebsiella pneumoniae 15-4 assessed as inhibition of bacterial growth measured after 18 to 20 hrs by broth microdilution method.
The subject of test [6] is Klebsiella pneumoniae. Nature of the test: Antibacterial activity against Klebsiella pneumoniae 15-5 assessed as inhibition of bacterial growth measured after 18 to 20 hrs by broth microdilution method.
Test [7] has as its system Acinetobacter baumannii. Nature of the test: Antibacterial activity against Acinetobacter baumannii 17-2 assessed as inhibition of bacterial growth measured after 18 to 20 hrs by broth microdilution method.
The test system of test [8] is Acinetobacter baumannii. Description: Antibacterial activity against Acinetobacter baumannii 17-8 assessed as inhibition of bacterial growth measured after 18 to 20 hrs by broth microdilution method.
The test system of test [9] is Pseudomonas aeruginosa. Description: Antibacterial activity against Pseudomonas aeruginosa 17-1 assessed as inhibition of bacterial growth measured after 18 to 20 hrs by broth microdilution method.
The test system of test [10] is Pseudomonas aeruginosa. Nature of the test: Antibacterial activity against Pseudomonas aeruginosa 19-5 assessed as inhibition of bacterial growth measured after 18 to 20 hrs by broth microdilution method.

With `Cc1nc(-c2ccc(C(C)(C)C)cc2)ncc1C(=O)N[C@@H](CCN)C(=O)N(C)[C@@H]1C(=O)N[C@@H](C)C(=O)N[C@H](C(=O)O)Cc2ccc(OCCN)c(c2)-c2cc1ccc2OCCN.O=C(O)C(F)(F)F.O=C(O)C(F)(F)F.O=C(O)C(F)(F)F.O=C(O)C(F)(F)F`, the MIC came to 0.06 µg/mL in [1]; 0.125 µg/mL in test [2]; 0.5 µg/mL in [3]; 0.06 µg/mL in [4]; 0.25 µg/mL in test [5]; 0.125 µg/mL in [6]. Also, the MIC in test [7] was 8 µg/mL; in [8], 1 µg/mL; in test [9], more than 64 µg/mL; in [10], more than 64 µg/mL.

Regarding `Cc1cc(-c2ccc(CSSC(C)(C)C)cc2)ncc1C(=O)N[C@@H](CCN)C(=O)N(C)[C@@H]1C(=O)N[C@@H](C)C(=O)N[C@H](C(=O)NCC#N)Cc2ccc(OCCN)c(c2)-c2cc1ccc2OCCN.O=C(O)C(F)(F)F.O=C(O)C(F)(F)F.O=C(O)C(F)(F)F.O=C(O)C(F)(F)F`, the minimum inhibitory concentration (MIC) in test [1] was not above 0.03 µg/mL; in test [2], 0.25 µg/mL; in test [3], 0.125 µg/mL; in [4], 0.125 µg/mL; in [5], 0.5 µg/mL; in test [6] it was 0.25 µg/mL. Also, the MIC worked out at 1 µg/mL in test [7], 1 µg/mL in [8], 8 µg/mL in [9] and 6 µg/mL in test [10].

As to `Cc1nc(-c2ccc(CSSC3CCCCC3)cc2)ncc1C(=O)N[C@@H](CCN)C(=O)N(C)[C@@H]1C(=O)N[C@@H](C)C(=O)N[C@H](C(=O)NCC#N)Cc2ccc(OCCN)c(c2)-c2cc1ccc2OCCN.O=C(O)C(F)(F)F.O=C(O)C(F)(F)F.O=C(O)C(F)(F)F.O=C(O)C(F)(F)F`, the MIC was not above 0.03 µg/mL in test [1]; not above 0.03 µg/mL in [2]; 0.125 µg/mL in test [3]; 0.5 µg/mL in test [4]; 0.25 µg/mL in test [5]; 0.25 µg/mL in [6]. For the same molecule, the minimum inhibitory concentration (MIC) was found to be 1 µg/mL in test [7], 0.5 µg/mL in [8], 4 µg/mL in test [9] and 4 µg/mL in test [10].

Regarding `Cc1nc(-c2ccc(CSSC(C)(C)C)c(F)c2)ncc1C(=O)N[C@@H](CCN)C(=O)N(C)[C@@H]1C(=O)N[C@@H](C)C(=O)N[C@H](C(=O)NCC#N)Cc2ccc(OCCN)c(c2)-c2cc1ccc2OCCN.O=C(O)C(F)(F)F.O=C(O)C(F)(F)F.O=C(O)C(F)(F)F.O=C(O)C(F)(F)F`, the MIC in test [1] was determined as 0.06 µg/mL; in [2], 0.125 µg/mL; in [3] it was 0.125 µg/mL; in [4] it was 0.25 µg/mL; in [5] it was 0.25 µg/mL; in test [6], 0.25 µg/mL. For the same molecule, the MIC in test [7] came to 1 µg/mL; in test [8] it was 1 µg/mL; in [9], 4 µg/mL; in [10], 4 µg/mL.

In the case of `Cc1nc(-c2ccc(C(C)(C)C)cc2)ncc1C(=O)N[C@@H](CCN)C(=O)N(C)[C@H]1Cc2ccc(OCCN)c(c2)-c2cc(ccc2OCCN)[C@@H](C(=O)NCC#N)NC(=O)[C@H](C)NC1=O.Cl.Cl.Cl.Cl`, the MIC in test [1], in test [2], in [3], in test [4], in test [5] and in [6] was more than 64 µg/mL each time. In addition, the minimal inhibitory concentration (MIC) in test [7], in test [9] and in [10] was more than 64 µg/mL throughout.

`Cc1nc(C2=CCC3(CC2)CC3)ncc1C(=O)N[C@@H](CCN)C(=O)N(C)[C@@H]1C(=O)N[C@@H](C)C(=O)N[C@H](C(=O)NCC#N)Cc2ccc(OCCN)c(c2)-c2cc1ccc2OCCN.O=C(O)C(F)(F)F.O=C(O)C(F)(F)F.O=C(O)C(F)(F)F.O=C(O)C(F)(F)F`: the MIC in test [1] came to 0.125 µg/mL; in test [2], 0.25 µg/mL; in test [3] it was 0.25 µg/mL; in [4], 0.25 µg/mL; in test [5], 0.25 µg/mL; in [6], 1 µg/mL. In addition, the MIC is 16 µg/mL in test [7], 4 µg/mL in test [8], more than 64 µg/mL in test [9] and more than 64 µg/mL in test [10].

Take `Cc1nc(-c2ccc(C(C)(C)C)cc2)ncc1C(=O)N[C@@H](CCN)C(=O)N(C)[C@@H]1C(=O)N[C@@H](C)C(=O)N[C@H](C(=O)NOCC#N)Cc2ccc(OCCN)c(c2)-c2cc1ccc2OCCN.Cl.Cl.Cl.Cl`: the MIC in test [1] came to 0.5 µg/mL; in test [2], 0.5 µg/mL; in test [3] it was 0.5 µg/mL; in test [4], 0.5 µg/mL; in [5], 2 µg/mL; in test [6], 1 µg/mL. Besides, the MIC in test [7] was 32 µg/mL; in test [9], more than 64 µg/mL; in test [10] it was more than 64 µg/mL.

On to `C=CC(=O)N[C@@H]1Cc2ccc(OCCN)c(c2)-c2cc(ccc2OCCN)[C@H](N(C)C(=O)[C@H](CCN)NC(=O)c2cnc(-c3ccc(C(C)(C)C)cc3)nc2C)C(=O)N[C@@H](C)C(=O)N1.O=C(O)C(F)(F)F.O=C(O)C(F)(F)F.O=C(O)C(F)(F)F.O=C(O)C(F)(F)F`, for which the minimal inhibitory concentration (MIC) in test [1] was found to be 64 µg/mL; in test [2] it was 64 µg/mL; in test [3], 64 µg/mL; in [4], 32 µg/mL; in test [5], 64 µg/mL; in test [6], 32 µg/mL. The MIC in test [7] was more than 64 µg/mL; in test [8] it was 64 µg/mL; in test [9] it was more than 64 µg/mL; in test [10] it was more than 64 µg/mL.

For the molecule `Cc1nc(-c2ccc(SSC(C)C)cc2)ncc1C(=O)N[C@@H](CCN)C(=O)N(C)[C@@H]1C(=O)N[C@@H](C)C(=O)N[C@H](C(=O)NCC#N)Cc2ccc(OCCN)c(c2)-c2cc1ccc2OCCN.O=C(O)C(F)(F)F.O=C(O)C(F)(F)F.O=C(O)C(F)(F)F.O=C(O)C(F)(F)F`, the MIC in test [1] was not above 0.03 µg/mL; in test [2], 0.06 µg/mL; in test [3], not above 0.03 µg/mL; in test [4], 0.06 µg/mL; in test [5] it was 0.06 µg/mL; in test [6], 0.06 µg/mL. Further, the MIC in test [7] was found to be 0.5 µg/mL; in test [8] it was 0.25 µg/mL; in test [9], 4 µg/mL; in test [10] it was 4 µg/mL.

On to `Cc1nc(-c2ccc(C(C)(C)SSC(C)(C)C)cc2)ncc1C(=O)N[C@@H](CCN)C(=O)N(C)[C@@H]1C(=O)N[C@@H](C)C(=O)N[C@H](C(=O)NCC#N)Cc2ccc(OCCN)c(c2)-c2cc1ccc2OCCN.O=C(O)C(F)(F)F.O=C(O)C(F)(F)F.O=C(O)C(F)(F)F.O=C(O)C(F)(F)F`, for which the MIC in test [1] was not above 0.03 µg/mL; in test [2], not above 0.03 µg/mL; in test [3], not above 0.03 µg/mL; in [4], 0.125 µg/mL; in test [5], 0.25 µg/mL; in [6] it was 0.25 µg/mL. Moreover, the MIC is 1 µg/mL in test [7], 0.5 µg/mL in [8], 4 µg/mL in test [9] and 4 µg/mL in test [10].

Regarding `Cc1nc(C2CCC3(CC2)CC3)ncc1C(=O)N[C@@H](CCN)C(=O)N(C)[C@@H]1C(=O)N[C@@H](C)C(=O)N[C@H](C(=O)NCC#N)Cc2ccc(OCCN)c(c2)-c2cc1ccc2OCCN.O=C(O)C(F)(F)F.O=C(O)C(F)(F)F.O=C(O)C(F)(F)F.O=C(O)C(F)(F)F`, the MIC in [1] stood at 1 µg/mL; in test [2] it was 2 µg/mL; in [3] it was 1 µg/mL; in [4], 2 µg/mL; in test [5], 4 µg/mL; in [6], 2 µg/mL. Also, the MIC is 64 µg/mL in [7], 8 µg/mL in test [8], more than 64 µg/mL in test [9] and more than 64 µg/mL in [10].

`Cc1nc(-c2ccc(C(C)(C)C)cc2)ncc1C(=O)N[C@@H](CCN)C(=O)N(C)[C@@H]1C(=O)N[C@@H](C)C(=O)N[C@H](C(=O)NCC(=O)O)Cc2ccc(OCCN)c(c2)-c2cc1ccc2OCCN.Cl.Cl.Cl.Cl`: the MIC is 1 µg/mL in test [1]; 1 µg/mL in test [2]; 1 µg/mL in test [3]; 1 µg/mL in test [4]; 2 µg/mL in [5]; 1 µg/mL in test [6]. In addition, the MIC in test [7] is 64 µg/mL; in [9] it was more than 64 µg/mL; in [10], more than 64 µg/mL.

As for `Cc1nc(-c2ccc(C(C)(C)C)cc2)ncc1C(=O)N[C@@H](CCN)C(=O)N(C)[C@@H]1C(=O)N[C@@H](C)C(=O)N[C@H](C(=O)NCC#N)c2ccc(OCCN)c(c2)-c2cc1ccc2OCCN.Cl.Cl.Cl.Cl`, the minimal inhibitory concentration (MIC) in [1] was 64 µg/mL; in [2], 32 µg/mL; in test [3], 32 µg/mL; in [4] it was 64 µg/mL; in test [5], more than 64 µg/mL; in [6], 64 µg/mL. Besides, the values for the MIC in test [7], in [9] and in test [10] were more than 64 µg/mL, more than 64 µg/mL and 32 µg/mL, respectively.

For `Cc1nc(-c2ccc(C(C)(C)C)cc2)ncc1C(=O)N[C@@H](CCN)C(=O)N(C)[C@@H]1C(=O)NCCC(=O)N[C@H](C(=O)NCC#N)Cc2ccc(OCCN)c(c2)-c2cc1ccc2OCCN.Cl.Cl.Cl.Cl`, the MIC in [1] came to 16 µg/mL; in test [2] it was 16 µg/mL; in test [3], 16 µg/mL; in [4], 32 µg/mL; in test [5], 32 µg/mL; in test [6], 64 µg/mL. For the same molecule, the MIC in test [7], in test [9] and in test [10] was more than 64 µg/mL in each case.

As to `Cc1nc(-c2ccc(C(C)(C)C)cc2)ncc1C(=O)N[C@@H](CCN)C(=O)N(C)[C@@H]1C(=O)N[C@@H](C)C(=O)N[C@H](C(=O)NCS(=O)(=O)O)Cc2ccc(OCCN)c(c2)-c2cc1ccc2OCCN.Cl.Cl.Cl.Cl`, the MIC in test [1] is 16 µg/mL; in test [2], 32 µg/mL; in test [3], 8 µg/mL; in test [4] it was 4 µg/mL; in test [5], 16 µg/mL; in [6], 8 µg/mL. In addition, the MIC in test [7], in test [9] and in [10] was more than 64 µg/mL in each case.
